In ChEMBL document CHEMBL4145464, “Prenylated flavonoids as potent phosphodiesterase-4 inhibitors from Morus alba: Isolation, modification, and structure-activity relationship study” (Eur J Med Chem, 2018) one finds IC50, inhibition and Ratio IC50 data, which are given here for 24 molecules.

Molecules are shown by their SMILES.

Assay [1] concerns the target 3',5'-cyclic-AMP phosphodiesterase 4D (Homo sapiens, UniProt Q08499). As to the kind of experiment: Inhibition of human PDE4D2 catalytic domain (86 to 413 residues) expressed in Escherichia coli strain BL21 using [3H]cAMP as substrate after 15 mins by liquid scintillation counter analysis.
The species entered for assay [2] is Homo sapiens. The assay can be described thus: Selectivity ratio of IC50 for human PDE2A3 catalytic domain (222 to 904 residues) expressed in Escherichia coli strain BL21 to IC50 for human PDE4D2 catalytic domain (86 to 413 residues) expressed in Escherichia coli strain BL21.
Assay [3] addresses High affinity cGMP-specific 3',5'-cyclic phosphodiesterase 9A (Homo sapiens, UniProt O76083). As to the kind of experiment: Inhibition of human PDE9A2 catalytic domain (181 to 506 residues) expressed in Escherichia coli strain BL21 using [3H]cAMP as substrate after 15 mins by liquid scintillation counter analysis.
The species named for assay [4] is Homo sapiens. The assay can be described thus: Selectivity ratio of IC50 for human PDE10A2 catalytic domain (448 to 789 residues) expressed in Escherichia coli strain BL21 to IC50 for human PDE4D2 catalytic domain (86 to 413 residues) expressed in Escherichia coli strain BL21.
Assay [5] addresses cAMP and cAMP-inhibited cGMP 3',5'-cyclic phosphodiesterase 10A (Homo sapiens, UniProt Q9Y233). As to the kind of experiment: Inhibition of human PDE10A2 catalytic domain (448 to 789 residues) expressed in Escherichia coli strain BL21 using [3H]cAMP as substrate after 15 mins by liquid scintillation counter analysis.
In assay [6] the target is cGMP-dependent 3',5'-cyclic phosphodiesterase (Homo sapiens, UniProt O00408). The assay can be described thus: Inhibition of human PDE2A3 catalytic domain (222 to 904 residues) expressed in Escherichia coli strain BL21 using [3H]cAMP as substrate after 15 mins by liquid scintillation counter analysis.
cGMP-dependent 3',5'-cyclic phosphodiesterase, sequence (O00408 whole entry, the tested form may be a part): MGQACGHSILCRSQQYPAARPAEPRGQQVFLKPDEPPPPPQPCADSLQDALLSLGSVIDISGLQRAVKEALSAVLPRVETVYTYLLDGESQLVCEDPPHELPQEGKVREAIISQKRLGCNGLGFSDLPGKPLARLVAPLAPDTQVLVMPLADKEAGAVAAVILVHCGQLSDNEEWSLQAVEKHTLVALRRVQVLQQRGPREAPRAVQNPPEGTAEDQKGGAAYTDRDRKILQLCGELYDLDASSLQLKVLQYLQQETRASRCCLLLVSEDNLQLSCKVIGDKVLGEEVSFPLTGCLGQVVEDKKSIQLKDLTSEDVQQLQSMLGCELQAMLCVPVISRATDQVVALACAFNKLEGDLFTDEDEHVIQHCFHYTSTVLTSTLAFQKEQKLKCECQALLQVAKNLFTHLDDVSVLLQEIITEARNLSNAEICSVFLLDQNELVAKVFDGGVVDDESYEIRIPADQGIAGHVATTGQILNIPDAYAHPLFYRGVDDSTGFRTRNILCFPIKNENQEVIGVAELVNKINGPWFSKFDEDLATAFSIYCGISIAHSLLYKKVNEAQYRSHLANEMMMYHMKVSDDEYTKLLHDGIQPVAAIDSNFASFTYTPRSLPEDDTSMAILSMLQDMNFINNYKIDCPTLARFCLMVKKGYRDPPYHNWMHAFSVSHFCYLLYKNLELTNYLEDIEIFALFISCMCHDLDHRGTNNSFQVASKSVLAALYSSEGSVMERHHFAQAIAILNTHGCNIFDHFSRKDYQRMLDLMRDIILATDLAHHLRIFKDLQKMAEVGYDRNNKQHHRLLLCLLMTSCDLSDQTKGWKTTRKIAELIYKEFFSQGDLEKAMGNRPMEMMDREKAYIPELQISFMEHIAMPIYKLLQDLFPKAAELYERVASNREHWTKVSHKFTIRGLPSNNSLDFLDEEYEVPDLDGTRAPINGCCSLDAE
For assay [7], the species on record is Homo sapiens. As to the kind of experiment: Selectivity ratio of IC50 for human PDE9A2 catalytic domain (181 to 506 residues) expressed in Escherichia coli strain BL21 to IC50 for human PDE4D2 catalytic domain (86 to 413 residues) expressed in Escherichia coli strain BL21.
Assay [8] is filed under the species Homo sapiens. The assay can be described thus: Selectivity ratio of IC50 for human PDE5A1 catalytic domain (535 to 860 residues) expressed in Escherichia coli strain BL21 to IC50 for human PDE4D2 catalytic domain (86 to 413 residues) expressed in Escherichia coli strain BL21.
Assay [9] addresses cGMP-specific 3',5'-cyclic phosphodiesterase (Homo sapiens, UniProt O76074). The assay can be described thus: Inhibition of human PDE5A1 catalytic domain (535 to 860 residues) expressed in Escherichia coli strain BL21 using [3H]cAMP as substrate after 15 mins by liquid scintillation counter analysis.
Assay [10] addresses Dual specificity calcium/calmodulin-dependent 3',5'-cyclic nucleotide phosphodiesterase 1B (Homo sapiens, UniProt Q01064). The assay can be described thus: Inhibition of human PDE1B2 catalytic domain (10 to 487 residues) expressed in Escherichia coli strain BL21 using [3H]cAMP as substrate after 15 mins by liquid scintillation counter analysis.
For assay [11], the species on record is Homo sapiens. The assay can be described thus: Selectivity ratio of IC50 for human PDE1B2 catalytic domain (10 to 487 residues) expressed in Escherichia coli strain BL21 to IC50 for human PDE4D2 catalytic domain (86 to 413 residues) expressed in Escherichia coli strain BL21.

3',5'-cyclic-AMP phosphodiesterase 4D, sequence (Q08499 whole entry, the tested form may be a part): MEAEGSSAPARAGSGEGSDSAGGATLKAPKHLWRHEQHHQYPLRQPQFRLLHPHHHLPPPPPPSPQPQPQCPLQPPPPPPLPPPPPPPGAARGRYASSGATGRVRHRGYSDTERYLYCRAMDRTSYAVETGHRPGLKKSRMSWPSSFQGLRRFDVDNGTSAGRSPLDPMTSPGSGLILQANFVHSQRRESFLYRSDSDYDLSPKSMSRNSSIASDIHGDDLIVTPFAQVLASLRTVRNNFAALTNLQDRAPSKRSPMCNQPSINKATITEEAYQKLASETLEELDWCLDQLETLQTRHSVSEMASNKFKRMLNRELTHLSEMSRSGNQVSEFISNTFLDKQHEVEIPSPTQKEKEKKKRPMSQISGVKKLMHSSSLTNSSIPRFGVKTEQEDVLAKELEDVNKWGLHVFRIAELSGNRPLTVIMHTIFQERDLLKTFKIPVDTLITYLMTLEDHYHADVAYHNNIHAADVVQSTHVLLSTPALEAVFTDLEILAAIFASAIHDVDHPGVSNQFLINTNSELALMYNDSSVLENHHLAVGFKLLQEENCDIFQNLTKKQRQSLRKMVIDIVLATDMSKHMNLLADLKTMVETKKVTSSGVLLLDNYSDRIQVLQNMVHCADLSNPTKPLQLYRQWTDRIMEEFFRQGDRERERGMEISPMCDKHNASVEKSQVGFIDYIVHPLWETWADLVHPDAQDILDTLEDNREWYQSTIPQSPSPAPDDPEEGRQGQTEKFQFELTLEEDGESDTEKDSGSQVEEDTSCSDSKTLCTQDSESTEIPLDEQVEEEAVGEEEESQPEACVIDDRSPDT
High affinity cGMP-specific 3',5'-cyclic phosphodiesterase 9A, sequence (O76083 whole entry, the tested form may be a part): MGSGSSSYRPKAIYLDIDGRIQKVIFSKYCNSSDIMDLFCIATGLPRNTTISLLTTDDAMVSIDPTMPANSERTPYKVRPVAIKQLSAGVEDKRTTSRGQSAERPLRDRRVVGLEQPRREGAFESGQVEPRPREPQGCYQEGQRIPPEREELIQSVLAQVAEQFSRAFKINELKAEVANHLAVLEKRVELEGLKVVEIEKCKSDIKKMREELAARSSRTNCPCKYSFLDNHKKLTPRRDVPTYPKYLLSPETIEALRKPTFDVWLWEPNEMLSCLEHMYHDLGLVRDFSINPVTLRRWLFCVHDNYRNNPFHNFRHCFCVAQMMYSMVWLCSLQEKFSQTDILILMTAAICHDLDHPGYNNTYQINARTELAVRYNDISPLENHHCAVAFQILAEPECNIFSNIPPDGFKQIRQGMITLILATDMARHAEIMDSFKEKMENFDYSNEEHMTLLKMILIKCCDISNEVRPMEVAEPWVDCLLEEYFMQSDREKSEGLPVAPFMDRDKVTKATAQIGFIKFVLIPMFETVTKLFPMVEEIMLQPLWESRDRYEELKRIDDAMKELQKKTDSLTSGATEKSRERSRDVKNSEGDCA
Dual specificity calcium/calmodulin-dependent 3',5'-cyclic nucleotide phosphodiesterase 1B, sequence (Q01064 whole entry, the tested form may be a part): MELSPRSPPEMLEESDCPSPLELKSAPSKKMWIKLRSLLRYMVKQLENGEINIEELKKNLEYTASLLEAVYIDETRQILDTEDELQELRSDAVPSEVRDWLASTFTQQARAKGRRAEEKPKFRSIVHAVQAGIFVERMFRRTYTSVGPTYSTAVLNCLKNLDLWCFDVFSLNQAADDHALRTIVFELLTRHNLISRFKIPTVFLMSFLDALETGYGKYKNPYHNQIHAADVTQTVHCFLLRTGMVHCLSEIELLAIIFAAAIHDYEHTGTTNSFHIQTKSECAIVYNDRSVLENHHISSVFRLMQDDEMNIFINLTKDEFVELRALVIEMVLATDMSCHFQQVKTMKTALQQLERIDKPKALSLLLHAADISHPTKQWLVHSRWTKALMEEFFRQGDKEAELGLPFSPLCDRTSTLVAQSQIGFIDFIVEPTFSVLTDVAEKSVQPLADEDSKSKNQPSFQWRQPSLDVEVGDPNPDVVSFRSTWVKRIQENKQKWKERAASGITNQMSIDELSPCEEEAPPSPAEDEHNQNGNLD
cAMP and cAMP-inhibited cGMP 3',5'-cyclic phosphodiesterase 10A, sequence (Q9Y233 whole entry, the tested form may be a part): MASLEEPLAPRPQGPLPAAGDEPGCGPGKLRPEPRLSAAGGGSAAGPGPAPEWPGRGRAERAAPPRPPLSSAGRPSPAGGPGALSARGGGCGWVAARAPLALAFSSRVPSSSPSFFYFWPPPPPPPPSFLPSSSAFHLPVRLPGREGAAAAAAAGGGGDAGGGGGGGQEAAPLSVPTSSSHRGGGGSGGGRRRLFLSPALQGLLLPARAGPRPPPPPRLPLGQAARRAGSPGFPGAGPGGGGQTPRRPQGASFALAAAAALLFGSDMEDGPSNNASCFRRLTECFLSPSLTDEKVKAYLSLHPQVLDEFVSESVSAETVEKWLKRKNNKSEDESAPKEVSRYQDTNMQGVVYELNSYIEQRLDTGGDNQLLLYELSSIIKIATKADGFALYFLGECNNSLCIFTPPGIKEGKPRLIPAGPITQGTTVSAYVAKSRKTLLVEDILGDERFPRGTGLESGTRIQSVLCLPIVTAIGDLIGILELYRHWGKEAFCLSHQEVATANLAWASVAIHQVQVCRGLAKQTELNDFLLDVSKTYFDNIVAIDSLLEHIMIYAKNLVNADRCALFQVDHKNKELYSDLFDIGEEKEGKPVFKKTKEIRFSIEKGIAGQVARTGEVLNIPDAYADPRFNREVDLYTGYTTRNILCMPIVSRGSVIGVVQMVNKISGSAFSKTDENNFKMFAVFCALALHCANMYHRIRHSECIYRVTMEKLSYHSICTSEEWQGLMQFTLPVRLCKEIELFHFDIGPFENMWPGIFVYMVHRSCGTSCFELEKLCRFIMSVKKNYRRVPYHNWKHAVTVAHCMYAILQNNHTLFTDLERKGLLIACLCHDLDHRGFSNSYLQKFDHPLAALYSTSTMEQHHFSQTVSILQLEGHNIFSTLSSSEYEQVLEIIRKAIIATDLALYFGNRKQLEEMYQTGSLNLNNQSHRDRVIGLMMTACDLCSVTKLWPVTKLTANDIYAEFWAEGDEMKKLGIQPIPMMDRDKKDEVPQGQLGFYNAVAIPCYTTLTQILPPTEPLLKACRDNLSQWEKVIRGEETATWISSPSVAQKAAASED

Broadly, the IC50 is the concentration needed to halve the response being measured. `CC(C)C[C@H]1Oc2cc(O)ccc2-c2oc3c4c(cc(O)c3c(=O)c21)OC(C)(C)CC4` returned an IC50 in assay [1] of 4.35 µM.

Regarding `CC(C)=CCCC1(C)C=Cc2c(ccc(-c3oc4cc(O)cc(O)c4c(=O)c3CC=C(C)C)c2O)O1` (stereo unspecified), in [1], half-maximal inhibition (IC50) required 0.27 µM.

The molecule `CC1(C)C=Cc2c(ccc(-c3cc(=O)c4c(O)cc5c(c4o3)C=CC(C)(C)O5)c2O)O1` registered a half-inhibitory concentration (IC50) in assay [1] of 0.03 µM.

Regarding `CC(C)=CCc1cc([C@@H]2CC(=O)c3c(O)cc(O)cc3O2)c(O)c(CC=C(C)C)c1O`, the IC50 in [1] came out at 9.9 µM.

In turn, `CC(C)=CCC/C(C)=C/Cc1c(O)ccc([C@@H]2CC(=O)c3c(O)cc(O)cc3O2)c1O` registered an IC50 in assay [1] of 2.33 µM.

`CC(C)C[C@@H]1Oc2cc(O)ccc2-c2oc3c4c(cc(O)c3c(=O)c21)OC(C)(C)CC4` registered an IC50 in assay [1] of 7.5 µM.

`CC(C)=C[C@@H]1Oc2cc(O)ccc2-c2oc3c4c(cc(O)c3c(=O)c21)OC(C)(C)C=C4`: in assay [1], half-maximal inhibition (IC50) required 0.25 µM and the inhibition entry was “Dose-dependent effect”.

`COC1CC(C)(C)Oc2cc(O)c3c(=O)c(CC=C(C)C)c(-c4ccc(O)cc4O)oc3c21` (stereo unspecified) gave an IC50 in assay [1] of 0.02 µM.

`CC(C)=C[C@H]1Oc2cc(O)ccc2-c2oc3c4c(cc(O)c3c(=O)c21)OC(C)(C)C=C4`: the Ratio IC50 in the assay listed under Homo sapiens [2] stood at 109; in the assay filed under Homo sapiens [4] it was 94; in the assay filed under Homo sapiens [7], 65; in the assay filed under Homo sapiens [8], 76; in the assay listed under Homo sapiens [11], 55. Further, the IC50 was 0.35 µM in [3]; 0.51 µM in [5]; 0.59 µM in assay [6]; 0.41 µM in assay [9]; 0.0054 µM in [1]; 0.3 µM in assay [10]. The inhibition result in [1] is “Dose-dependent effect”.

Take `CC(=O)Oc1ccc2c(c1)O[C@H](C=C(C)C)c1c-2oc2c3c(cc(O)c2c1=O)OC(C)(C)C=C3`: the IC50 in assay [1] was 4.89 µM.

`C=CC(C)(C)c1cc(-c2cc(=O)c3c(O)cc(O)cc3o2)c(O)cc1O`: the IC50 in assay [1] is 1.88 µM.

Take `CC(C)=CCc1c(-c2ccc(O)cc2O)oc2c(CC=C(C)C)c(O)cc(O)c2c1=O` [KUWANON C]: inhibition in assay [1] was half-maximal at 0.31 µM (IC50).

In assay [1], `CC(C)=CCC/C(C)=C/Cc1c(O)c(CC=C(C)C)cc([C@@H]2CC(=O)c3c(O)cc(O)cc3O2)c1O` returned an IC50 of 2.19 µM.

As for `CC1(C)C=Cc2c(c3c(c4c(=O)cc(-c5ccc(O)cc5O)oc24)OC(C)(C)CC3)O1`, inhibition in assay [1] was half-maximal at 0.87 µM (IC50).

`CC(C)=CCC/C(C)=C/Cc1cc([C@@H]2CC(=O)c3c(O)cc(O)cc3O2)c(O)cc1O` yielded a half-maximal inhibitory concentration (IC50) in [1] of 1.26 µM.

As for `COc1ccc2c(c1)O[C@H](C=C(C)C)c1c-2oc2c3c(cc(O)c2c1=O)OC(C)(C)C=C3`, in assay [1], the IC50 worked out at 5.18 µM.

In assay [1], `C/C(C=O)=C\Cc1c(-c2ccc(O)cc2O)oc2c3c(cc(O)c2c1=O)OC(C)(C)C=C3` had an IC50 of 9.21 µM.

For the molecule `CC(C)=CCc1c(O)cc2oc(-c3ccc(O)cc3O)c(CC=C(C)C)c(=O)c2c1O` [CUDRAFLAVONE C], the IC50 in assay [1] was found to be 0.26 µM.

Molecule `COc1ccc2c(c1)O[C@@H](C=C(C)C)c1c-2oc2c3c(cc(O)c2c1=O)OC(C)(C)C=C3` came in with a 50% inhibitory concentration (IC50) in assay [1] of 8.6 µM.

As to `CC(C)=CCCC1(C)C=Cc2cc(C3CC(=O)c4c(O)cc(O)cc4O3)c(O)cc2O1` (stereo unspecified), the IC50 in assay [1] was 3.59 µM.

For `CC(C)=CCc1c(O)cc(O)c2c(=O)c3c(oc12)-c1ccc(O)cc1OC3C=C(C)C` (stereo unspecified), half-maximal inhibition in assay [1] (IC50) was put at 0.04 µM.

Regarding `CC(C)=CC1Oc2cc(O)ccc2-c2oc3cc(O)cc(O)c3c(=O)c21` (stereo unspecified), 0.4 µM corresponded to half-maximal inhibition in assay [1] (IC50).

As to `CC(C)=CCc1c(-c2ccc(O)cc2O)oc2c3c(cc(O)c2c1=O)OC(C)(C)C=C3` [MORUSIN], in assay [1], the IC50 worked out at 0.9 µM.

Molecule `CC(C)=CCc1c(O)cc(O)c2c(=O)cc(-c3ccc(O)cc3)oc12` showed an IC50 in assay [1] of 0.63 µM.
